Assay [1] deals with T1, Igf2bp1 (Homo sapiens, UniProt Q9NZI8).
T1 construct: Recombinant full-length Igf2bp1 protein; made in house; host or cells: E. coli BL21(DE3)
The assay can be described thus: Microscale thermophoresis (MST) binding to full-length Igf2bp1. To be noted: full-length protein, unit printed μM. The procedure: (§1) Recombinant full-length Igf2bp1 protein was labelled with RED-tris-NTA dye using a Monolith NT His-Tag Labelling Kit (NanoTemper) while RRM12, KH12 and KH34 di-domain peptides were labelled using the Protein Labeling Kit RED NHS 2nd generation (NanoTemper). Labelled proteins were spun at 15,000 g for 5 min to eliminate aggregates. All samples were 2× labelled protein mix of Igf2bp1 (200 nM) in PBST and were combined (1:1) with serial dilutions of compound or Kras6 RNA in binding buffer (10 mMTris pH=7.5, 100 mM NaCl, 0.1 mM EDTA, 0.06% IPEGAL, 0.02 μg/μL tRNA, 2 mM DTT, 0.1 μg/μL heparin) in final volume of 20 μL, room temperature for 15 min. Samples were then loaded into standard capillaries (NanoTemper) and read in the Monolith NT.115 scanner (NanoTemper) using the red filter with reading conditions of 95% LED power and 40% MST power, 5 sec fluorescence before, 30 sec MST on, 5 sec fluorescence after and 25 sec delay between samples. Results were analyzed using the MO Control software (NanoTemper) for curve fitting to KD.

Assay [2] relates to ES2 cells. The assay is described as follows: Wound healing (cell migration) assay, ES2 cells. Type of assay: cell-based, human. The procedure: (§2) Cells were seeded in 96 IncuCyte® ImageLock plates (20×10^3 cells per well) for 24 hours, to a near confluency of 95%, before the addition of increasing concentrations of compound. After a further 24 hours, wells were scratched using the IncuCyte® 96-well WoundMaker Tool, and the cells cultured for an additional 48 hours using the IncuCyte® S3 Live-Cell Analysis System (Essen BioScience). The plate was imaged at increments of 120 minutes for a period of 48 hours, and then analyzed for relative wound healing.

Assay [3] addresses G9a (Homo sapiens, UniProt Q96KQ7). The assay is described as follows: G9a fluorescence polarization enzymatic activity assay. The assay is classed as biochemical. To be noted: increasing concentrations. On the procedure: For the small molecule screen, compounds were obtained from the collection maintained at the Grand Israel National Center for Personalized Medicine, consisting of molecules purchased from commercial vendors. Labelled RNA (10 nM) was incubated with recombinant Igf2bp1 protein (400 nM) in FAM-RNA buffer (10 mM Tris pH 8.0, 75 mM KCl, 0.5 mM EDTA, 1 mM DTT, 0.0188 U/μL RNAsin, 0.0005 μg/mL heparin, 0.0001 μg/μL tRNA, 0.01% Triton X-100, 3 mM MgCl2, 0.05% IGEPAL) at room temperature for 15 min. […] of this reaction mix was aliquoted with GNF WDII (USA) into wells of 1536 well plates, with a final concentration of […] compound or DMSO. The plates were spun down and read in a BMG Pherastar FS (Germany) plate reader plate reader, in FP mode with a 485/520/520 polarization filter, calibrated to 35 mP for free fluorescein with similar total intensity as experimental samples. The G9a FP assay was based on using an S-adenosylhomocysteine (SAH)-FITC probe and antibody to SAH to produce a high FP signal when the antibody binds to SAH-FITC. Unlabeled SAH produced by incubation of G9a enzyme with S-adenosylmethionine (SAM) and peptide substrate competes for the antibody and results in a low FP signal. 100% activity means that G9a is fully active and therefore a low FP signal is observed (SAH is produced).
A general note: Fluorescence polarisation rises when a labelled molecule tumbles more slowly, as on binding a larger partner.

Assay [4] deals with HEK293 cells. The assay can be described thus: Wound healing (cell migration) assay, HEK293 cells. The assay is classed as cell-based, human. The procedure: as §2
The test system of assay [5] is cMyc mRNA. The assay is described as follows: cMyc mRNA levels in different cell lines. The assay is classed as cell-based. The procedure: Primers were calibrated for several Igf2bp1 RNA targets (Table 3): […]
Cells were grown for 12 hours in 12 well plates prior to incubation with the compound at different concentrations for an additional 12 or 24 hours. Total RNA was then extracted using EZ-RNA total RNA isolation kit (Biological Industries) and cDNA prepared from the RNA using the First Strand cDNA Synthesis kit (Quanta bio). Real time PCR was performed with Fast SYBR Green Master Mix (Thermo Fisher Scientific), and cDNA expression analyzed with the Bio-Rad CFX Manager 3.1.

The target in assay [6] is T2, Igf2bp1 RRM12 di-domain (Homo sapiens, UniProt Q9NZI8).
T2 construct: RRM12 (M1-P188); 6xHis (N, cleaved yes); made in house; host or cells: E. coli BL21(DE3)
The assay is described as follows: MST binding to Igf2bp1 di-domain RRM12. The procedure:
as §1

In assay [7] the target is T3, Igf2bp1 KH12 di-domain (Homo sapiens, UniProt Q9NZI8).
T3 construct: KH12 (V194-N369); 6xHis/GST (N, cleaved yes); made in house; host or cells: E. coli BL21(DE3)
The assay can be described thus: MST binding to Igf2bp1 di-domain KH12. The procedure:
as §1

Assay [8] deals with La (Homo sapiens, UniProt P05455). The assay can be described thus: MST binding to control RNA binding protein La.
The target of assay [9] is T4, Igf2bp2 (Homo sapiens, UniProt Q9Y6M1).
T4 construct: His tag (C); made in house; host or cells: E. coli BL21(DE3)
The assay can be described thus: MST binding to Igf2bp2. To be noted: even at concentrations that almost saturate binding to Igf2bp1.

Assay [10] relates to HEK293 cells. The assay can be described thus: Cell proliferation assay (Incucyte), HEK293 cells. The assay is classed as cell-based, human. Details: dose or concentration left out as unconfirmed. To be noted: HEK293, 7773. On the procedure: (§3) ES2, H1299 and HEK293 cells were seeded in a 96 well plate (5×10^3 cells per well) for 24 hours before adding the compound at increasing concentrations. After an additional 24 hours, the plate was incubated in an IncuCyte® S3 Live-Cell Analysis System (Essen BioScience). The wells were filmed for 72 hours, and then analyzed for proliferation rate Using IncuCyte® S3 Live-Cell Analysis System (Essen BioScience)

The subject of assay [11] is ES2 cells. The assay can be described thus: Cell proliferation assay (Incucyte), ES2 cells. The assay is classed as cell-based, human. Further details: dose or concentration left out as unconfirmed. To be noted: ES2, up. The procedure:
as §3

The structures appear in SMILES notation. “Also recorded” adds a separate entry of the source.

In general, Kd refers to the constant that tells how readily two partners part at equilibrium.

G9a, sequence (Q96KQ7 whole entry, species assumed): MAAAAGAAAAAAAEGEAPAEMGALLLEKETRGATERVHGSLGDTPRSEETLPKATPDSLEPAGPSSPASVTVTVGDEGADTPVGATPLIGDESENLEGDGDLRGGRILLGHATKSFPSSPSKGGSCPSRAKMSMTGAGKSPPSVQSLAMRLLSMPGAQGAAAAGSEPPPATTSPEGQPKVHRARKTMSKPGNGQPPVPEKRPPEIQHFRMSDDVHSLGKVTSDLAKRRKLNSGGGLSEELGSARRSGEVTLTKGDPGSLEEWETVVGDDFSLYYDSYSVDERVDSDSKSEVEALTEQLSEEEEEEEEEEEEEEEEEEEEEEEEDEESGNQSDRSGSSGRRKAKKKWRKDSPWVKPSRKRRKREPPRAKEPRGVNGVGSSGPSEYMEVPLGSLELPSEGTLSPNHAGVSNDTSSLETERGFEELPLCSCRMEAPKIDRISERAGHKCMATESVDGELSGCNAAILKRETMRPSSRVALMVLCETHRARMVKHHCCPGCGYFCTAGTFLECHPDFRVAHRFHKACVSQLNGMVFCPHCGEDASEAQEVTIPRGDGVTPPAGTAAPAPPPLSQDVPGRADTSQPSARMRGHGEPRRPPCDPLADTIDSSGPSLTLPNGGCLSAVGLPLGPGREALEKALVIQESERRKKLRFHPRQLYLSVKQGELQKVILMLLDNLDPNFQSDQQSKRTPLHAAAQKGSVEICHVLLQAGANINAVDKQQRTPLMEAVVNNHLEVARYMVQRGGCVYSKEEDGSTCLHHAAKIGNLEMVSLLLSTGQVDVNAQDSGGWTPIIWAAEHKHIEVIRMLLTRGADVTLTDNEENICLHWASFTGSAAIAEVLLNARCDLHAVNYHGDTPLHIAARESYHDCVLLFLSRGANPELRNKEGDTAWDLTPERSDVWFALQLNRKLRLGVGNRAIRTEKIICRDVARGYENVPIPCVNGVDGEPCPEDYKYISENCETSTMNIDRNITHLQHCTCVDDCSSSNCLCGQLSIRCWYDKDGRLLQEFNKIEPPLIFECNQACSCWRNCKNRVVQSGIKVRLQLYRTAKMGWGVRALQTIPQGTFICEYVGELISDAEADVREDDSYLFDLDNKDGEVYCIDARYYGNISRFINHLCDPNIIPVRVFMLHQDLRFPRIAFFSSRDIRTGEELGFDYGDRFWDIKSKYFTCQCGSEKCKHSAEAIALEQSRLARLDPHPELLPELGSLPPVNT
T3 sequence (Q9NZI8 194-369): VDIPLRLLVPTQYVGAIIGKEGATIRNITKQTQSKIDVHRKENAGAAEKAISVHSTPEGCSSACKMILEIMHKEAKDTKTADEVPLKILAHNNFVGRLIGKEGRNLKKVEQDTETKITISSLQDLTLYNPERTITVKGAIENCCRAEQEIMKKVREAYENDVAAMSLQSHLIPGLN
T1 sequence (Q9NZI8 whole entry): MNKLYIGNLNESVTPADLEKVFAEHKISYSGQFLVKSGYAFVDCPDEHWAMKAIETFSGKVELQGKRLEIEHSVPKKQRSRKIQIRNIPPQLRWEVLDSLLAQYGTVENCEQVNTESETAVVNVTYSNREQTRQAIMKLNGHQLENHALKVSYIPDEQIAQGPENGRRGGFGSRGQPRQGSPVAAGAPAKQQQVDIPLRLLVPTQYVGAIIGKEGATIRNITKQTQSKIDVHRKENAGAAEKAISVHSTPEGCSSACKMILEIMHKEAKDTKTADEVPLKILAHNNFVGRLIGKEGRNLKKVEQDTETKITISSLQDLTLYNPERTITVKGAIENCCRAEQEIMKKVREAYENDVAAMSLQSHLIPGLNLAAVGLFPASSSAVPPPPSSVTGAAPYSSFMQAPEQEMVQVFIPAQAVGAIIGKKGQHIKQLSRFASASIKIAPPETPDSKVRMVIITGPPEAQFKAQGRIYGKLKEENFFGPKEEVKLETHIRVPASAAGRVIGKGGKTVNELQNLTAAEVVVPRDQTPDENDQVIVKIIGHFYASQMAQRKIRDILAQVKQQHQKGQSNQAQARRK
La, sequence (P05455 whole entry): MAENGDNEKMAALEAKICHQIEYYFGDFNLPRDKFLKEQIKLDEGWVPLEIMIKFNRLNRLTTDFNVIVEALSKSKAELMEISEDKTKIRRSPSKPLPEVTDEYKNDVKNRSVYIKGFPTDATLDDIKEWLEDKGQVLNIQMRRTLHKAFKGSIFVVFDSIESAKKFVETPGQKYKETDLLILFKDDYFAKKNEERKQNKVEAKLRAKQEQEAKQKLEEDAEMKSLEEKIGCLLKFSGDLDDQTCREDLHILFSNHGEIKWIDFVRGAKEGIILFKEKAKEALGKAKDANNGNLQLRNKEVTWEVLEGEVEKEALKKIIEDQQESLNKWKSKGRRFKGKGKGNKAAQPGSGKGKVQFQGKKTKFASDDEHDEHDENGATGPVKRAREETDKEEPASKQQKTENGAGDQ
T4 sequence (Q9Y6M1 whole entry, species assumed): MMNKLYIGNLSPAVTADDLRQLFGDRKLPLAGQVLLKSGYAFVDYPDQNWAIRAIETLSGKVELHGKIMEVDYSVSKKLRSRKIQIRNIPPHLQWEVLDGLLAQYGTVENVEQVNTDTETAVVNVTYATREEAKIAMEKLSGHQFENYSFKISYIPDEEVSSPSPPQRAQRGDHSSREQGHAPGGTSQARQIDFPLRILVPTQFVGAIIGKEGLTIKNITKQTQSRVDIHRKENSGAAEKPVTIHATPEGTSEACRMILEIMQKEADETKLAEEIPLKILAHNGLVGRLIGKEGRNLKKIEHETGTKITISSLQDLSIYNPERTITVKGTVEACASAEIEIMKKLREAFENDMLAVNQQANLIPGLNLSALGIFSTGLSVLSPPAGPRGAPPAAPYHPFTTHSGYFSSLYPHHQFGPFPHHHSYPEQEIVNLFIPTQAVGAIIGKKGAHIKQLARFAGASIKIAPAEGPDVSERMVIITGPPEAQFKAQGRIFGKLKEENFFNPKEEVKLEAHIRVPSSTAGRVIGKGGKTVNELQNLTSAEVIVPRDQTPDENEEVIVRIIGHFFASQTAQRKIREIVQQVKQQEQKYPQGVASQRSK
T2 sequence (Q9NZI8 1-188): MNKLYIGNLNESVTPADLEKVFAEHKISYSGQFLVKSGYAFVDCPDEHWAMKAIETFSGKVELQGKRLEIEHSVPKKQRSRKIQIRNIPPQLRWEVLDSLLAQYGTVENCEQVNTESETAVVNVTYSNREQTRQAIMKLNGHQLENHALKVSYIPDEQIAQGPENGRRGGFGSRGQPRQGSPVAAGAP

In the case of `O=C(c1ccc(Cn2cnnn2)cc1)N1CCCC(Nc2ccc3c(c2)OCO3)C1` (stereo not shown) [Compound 7773], the Kd was found to be 17 µM in assay [1] and 1.5 µM in assay [6]. In addition, the “Inhibition of wound healing” value in assay [2] (ES2, 5 mM 7773) is recorded as “discernible inhibition”; in assay [2] (ES2, 20 mM 7773) it was “strongly inhibited”; in assay [4] (HEK293, 5 mM 7773) it was “discernible inhibition”; in assay [4] (HEK293, 20 mM 7773), “strongly inhibited”. For the same compound, in [3], the “Inhibition of G9a enzymatic activity” value is recorded as “almost no effect; also recorded: does not inhibit”. For the same compound, the “Reduction of cMyc mRNA levels” value in assay [5] was 50-60%. Further, in assay [7], the “Binding to KH12 (MST)” value was “no binding”. In addition, the “Binding to La (MST)” value in [8] is listed as “no binding”. Also, the “Binding to Igf2bp2 (MST)” value in [9] is reported as “did not significantly bind”. Besides, the Cell proliferation result in assay [10] and in assay [11] was “remarkably unaffected” throughout.

(Values after US20240025886A1, “INHIBITORS OF IGF2BP1-RNA BINDING” (YISSUM RESEARCH DEVELOPMENT COMPANY OF THE HEBREW …, priority 2020, published 2024).)
